Here are results for four compounds from patent US11465972B2, “Inhibitors of oxidized low-density lipoprotein receptor 1 and methods of use thereof” (United States Government as represented by the Department …, priority 2015, dated 2022).

Assay [1] deals with macrophages. Particulars: cited from earlier work.
In assay [2] the test system is human primary aortic endothelial cells. The assay can be described thus: ox-LDL uptake by human primary aortic endothelial cells (flow cytometry). Particulars: Endothelial cell, 0, 5, 50, 100, 250, 500 nM. In kind it is cell-based. The procedure: FIG. 7A depicts flow cytometry measurements using human primary aortic endothelial cells in the presence of 0, 5, 50 100, 250 and […] of Formula XVI. FIG. 7B depicts the percentage of internalized ox-LDL. The x-axis represents Formula XVI concentration (nM) and the y-axis represents ox-LDL uptake by ECs.
Ox-LDL uptake by human primary aortic endothelial cells was measured after exposure to 0, 5, 50, 100, 250 and 500 nM of the compound of Formula XVI (compound 13 in Table 3) using flow cytometry.
A general note: In flow cytometry, cells or beads pass a laser one at a time.

Assay [3] concerns LOX-1 expression. As to conditions: cited from earlier work.
Assay [4] has as its target CHO cells expressing LOX-1 (Homo sapiens, UniProt P78380). As to conditions: only at high concentrations; cited from earlier work.

The term IC50 denotes the concentration that gives 50% inhibition.

Consider `CCCCCCCCCCCCCCCCCC(=O)Nc1ccc(S(=O)(=O)O)c(NC(=O)CCCCCCCCCCCCCCCCC)c1` [2,4-bis(octadecanoylamino) benzenesulfonic acid], for which, in assay [1], the “LDL binding to macrophages” value is “prevented LDL from binding to macrophages”.
As to `OC(COc1ccccc1)Cn1ccnc1I` (stereo not shown) [Formula XVI], the IC50 in assay [2] was determined as 26.7 nM.
On to `CC(=O)Oc1ccccc1C(=O)O` [aspirin], for which, in assay [3], the “ox-LDL mediated LOX-1 expression” value is listed as “reduce ox-LDL mediated LOX-1 expression”.
Regarding procyanidins, in assay [4], the “ox-LDL uptake in CHO cells expressing LOX-1” value is reported as “inhibited ox-LDL uptake”.
